Measurements as given in the PolyMetriX glass transition set.
± gives the standard deviation of the reports.

| SMILES | glass transition temperature |
| --- | --- |
| *C(CC)COC(=O)NCCCCCCNC(=O)OCC(CC)n1c(=O)c2cc3c(=O)n(*)c(=O)c3cc2c1=O (repeat unit) | 61.00 °C |
| *Oc1ccc(OC(=O)c2ccc(C(*)=O)cc2)cc1CCC(C)CC (repeat unit) | 237.00 °C |
| *Oc1cc(CCCC)cc(OC(=O)c2cccc(C(*)=O)c2)c1 (repeat unit) | 97.50 °C |
| *CCCCCCOC(=O)OCCCCCCCCCCOC(=O)OCCCCCCOc1ccc(Oc2ccc(O*)cc2)cc1 (repeat unit) | -22.00 °C |
| *CCC[Si](*)(C)c1ccccc1 (repeat unit) | -1.50 °C |
| *CCCCCCCCOc1c(OC)cc(/C=C2\CCC/C(=C\c3cc(OC)c(O*)c(OC)c3)C2=O)cc1OC (repeat unit) | 62.00 °C |
| *C1C(*)C2CC1C(C(=O)OCC1CC3CCC1C3)C2C(=O)OCC1CC2CCC1C2 (repeat unit) | 320.00 °C |
| *CCCCCCCCCCN1C(=O)C2C3C=CC(C4C(=O)N(*)C(=O)C34)C2C1=O (repeat unit) | 219.00 °C |
| *Nc1ccc(C(C)(C)c2cccc(C(C)(C)c3ccc(NC(=C(C#N)C#N)c4ccc(C(*)=C(C#N)C#N)cc4)cc3)c2)cc1 (repeat unit) | 208.00 °C |
| *Oc1c(F)c(F)c(-c2c(F)c(F)c(Oc3ccc(C(c4ccc(*)cc4)(C(F)(F)F)C(F)(F)F)cc3)c(F)c2F)c(F)c1F (repeat unit) | 167.00 °C |
| *C1Cc2ccccc2C1* (repeat unit) | 188.50 °C |
| *c1cccc(P(=O)(c2ccc(C(F)(F)F)cc2)c2cccc(-n3c(=O)c4cc5c(=O)n(*)c(=O)c5c(-c5ccccc5)c4c3=O)c2)c1 (repeat unit) | 311.00 °C |
| *Oc1ccc(CC(NC(=O)CCc2ccc(OC(=O)CCCC(*)=O)cc2)C(=O)OCCCCCCCCCCCC)cc1 (repeat unit) | 27.50 °C |
| *C(C)C(*)C(=O)OC12CC3CC(C)(CC(C)(C3)C1)C2 (repeat unit) | 194.50 °C |
| *CC(*)C (repeat unit) [Poly(propylene)] | -24.6 ± 21 °C |
| *Oc1ccc(CC(NC(=O)CCc2ccc(OC(=O)CCCCCCCCC(*)=O)cc2)C(=O)OC(C)CC)cc1 (repeat unit) | 36.00 °C |
| *CC(*)c1cc(OC)c(OC(C)=O)c(OC)c1 (repeat unit) | 147.00 °C |

| SMILES | glass transition temperature |
| --- | --- |
| *C1OC(C(F)(F)F)(C(F)(F)F)OC1(*)F (repeat unit) | 256.00 °C |
| *Nc1ccc(N[Se]*)cc1 (repeat unit) | 55.00 °C |
| *CC(*)C(=O)OCCCCCC (repeat unit) | -57.00 °C |
| *Oc1ccc(NC(=O)c2ccc(C(=O)Nc3ccc(Oc4ccc(C5(c6ccc(*)cc6)CC6CCC5C6)cc4)cc3)cc2)cc1 (repeat unit) | 281.00 °C |
| *CC(*)(CC(=O)Oc1ccc(OC)cc1)C(=O)Oc1ccc(OC)cc1 (repeat unit) | 119.50 °C |
| *c1ccc(-c2ccc(-c3cc(-c4ccc(Oc5ccc(Oc6ccccc6)cc5)cc4)c4cc(-c5ccc6nc(*)cc(-c7ccc(Oc8ccc(Oc9ccccc9)cc8)cc7)c6c5)ccc4n3)cc2)cc1 (repeat unit) | 355.00 °C |
| *CCCCCCCCCCC(=O)NCCc1ccc(CCNC(=O)CCCCCCCCCCS*)cc1 (repeat unit) | 58.00 °C |
| *Oc1ccc(P(C)(=O)c2ccc(Oc3ccc(C(c4ccccc4)(c4ccc(*)cc4)C(F)(F)F)cc3)cc2)cc1 (repeat unit) | 229.00 °C |
| *CC(*)C(=O)OCC(F)(F)C(F)(F)OC(F)(F)C(F)(F)F (repeat unit) | -49.00 °C |
| *C1C(*)C2CC1C(C(=O)OCCC1CC3CCC1C3)C2C(=O)OCCC1CC2CCC1C2 (repeat unit) | 260.00 °C |
| *CC(*)C(=O)OCc1c(Br)c(Br)c(Br)c(Br)c1Br (repeat unit) | 181.00 °C |
| *CCNC(=O)c1ccc(C(=O)N*)c(Sc2ccccc2)c1 (repeat unit) | 172.00 °C |
| *CCCCCOc1cccc(C(=O)OC(=O)c2cccc(O*)c2)c1 (repeat unit) | 61.00 °C |
| */C(Cl)=C(/*)CCCCCC (repeat unit) | 150.00 °C |
| *Oc1ccc(S(=O)(=O)c2ccc(Oc3ccc(C4(c5ccc(Oc6ccc(S(=O)(=O)c7ccc(Oc8ccc(/C=C9\CC/C(=C\c%10ccc(*)cc%10)C9=O)cc8)cc7)cc6)cc5)CCCC4)cc3)cc2)cc1 (repeat unit) | 240.00 °C |
| *CC(C)COC(=O)c1ccc(C(=O)O*)cc1 (repeat unit) | 55.00 °C |

Continued, values first:

| glass transition temperature | SMILES |
| --- | --- |
| 121.00 °C | *CC(O)COc1ccc(C(C)(C)c2ccc(OCC(O)COc3ccccc3C(=O)Nc3ccc(O*)cc3)cc2)cc1 (repeat unit) |
| 270.00 °C | *c1ccc(Oc2cccc(NC(=O)c3cc(NC(=O)c4ccc(OC(C)=O)cc4)cc(C(=O)Nc4cccc(Oc5ccc(-c6nnc(*)o6)cc5)c4)c3)c2)cc1 (repeat unit) |
| 303.00 °C | *C(=O)c1ccc2c(c1)C(=O)N(c1ccc(Oc3c(C)cc(Cc4cc(C)c(Oc5ccc(N6C(=O)c7ccc(*)cc7C6=O)cc5)c(C)c4)cc3C)cc1)C2=O (repeat unit) |
| 260.00 °C | *c1ccc2c(c1)C(=O)N(c1cccc(C(C)(C)c3ccc(N4C(=O)c5ccc(C(*)(C(F)(F)F)C(F)(F)F)cc5C4=O)cc3)c1)C2=O (repeat unit) |
| 380.00 °C | *c1ccc(-c2ccc(-c3cc(-c4ccccc4)c4cc(C5(c6ccc7nc(*)cc(-c8ccccc8)c7c6)c6ccccc6-c6ccccc65)ccc4n3)cc2)cc1 (repeat unit) |
| 204.00 °C | *c1ccc2c(c1)C(=O)N(c1ccc(OC(CCC)COc3ccc(N4C(=O)c5ccc(C(*)(C(F)(F)F)C(F)(F)F)cc5C4=O)cc3)cc1)C2=O (repeat unit) |
| 147.00 °C | *c1ccc(/C=C/c2cc(OCC(CC)CCCC)c(/C=C/c3ccc(N(*)c4ccccc4)cc3)cc2OC)cc1 (repeat unit) |
| 251.00 °C | *Oc1ccc(S(=O)(=O)c2ccc(Oc3ccc(-c4ccc(-c5ccc(*)cc5)cc4)cc3)cc2)cc1 (repeat unit) |
| 183.00 °C | *C1C(=O)N(c2ccc(O[Si](c3ccccc3)(c3ccccc3)c3ccccc3)cc2)C(=O)C1* (repeat unit) |
| 232.00 °C | *C(=O)c1ccc2c(c1)C(=O)N(c1ccc(Oc3ccc(NC(=O)c4cccc(C(=O)Nc5ccc(Oc6ccc(N7C(=O)c8ccc(*)cc8C7=O)cc6)cc5)c4)cc3)cc1)C2=O (repeat unit) |
| 252.00 °C | *c1ccc(Oc2ccc(C(=O)c3ccc(Oc4ccc(-c5c6c(c(*)c7ccccc57)C(=O)N(c5cccc(C(F)(F)F)c5)C6=O)cc4)cc3)cc2)cc1 (repeat unit) |
| 100.00 °C | *CC(C)(C)COC(=O)c1ccc(-c2ccc(-c3ccc(C(=O)O*)cc3)cc2)cc1 (repeat unit) |
| 365.00 °C | *C(=O)c1ccc2c(c1)C(=O)N(c1ccc(-c3ccc(N4C(=O)c5ccc(*)cc5C4=O)c(C)c3)cc1C)C2=O (repeat unit) |
| 127.00 °C | *CC(O)COc1ccc(C(C)(C)c2ccc(OCC(O)COc3ccc(C(=O)Nc4ccc(O*)cc4)cc3)cc2)cc1 (repeat unit) |
| 164.00 °C | *CC(*)(C)C(=O)OCCn1c2ccccc2c2cc(/N=N/c3ccc([N+](=O)[O-])cc3)ccc21 (repeat unit) |
| 133.50 °C | *c1ccc(OCCCCCCCCCCCOc2ccc(-c3ccc4nc(-c5cccc(-c6cc(-c7ccccc7)c7cc(*)ccc7n6)c5)cc(-c5ccccc5)c4c3)cc2)cc1 (repeat unit) |
| 280.00 °C | *c1ccc(Cc2ccc(N3C(=O)c4ccc([Si](C)(C)c5ccc6c(c5)C(=O)N(*)C6=O)cc4C3=O)cc2)cc1 (repeat unit) |
| 234.00 °C | *CC1CCCC(CN2C(=O)c3ccc(-c4ccc5c(c4)C(=O)N(*)C5=O)cc3C2=O)C1 (repeat unit) |
| 392.00 °C | *c1ccc(-c2cnc3cc4nc(*)cnc4cc3n2)cc1 (repeat unit) |
| 194.00 °C | *c1ccc(C(=O)Oc2c(C)cc(C(c3cccnc3)c3cc(C)c(OC(=O)c4ccc(N5C(=O)CC(Nc6cccc(NC7CC(=O)N(*)C7=O)c6)C5=O)cc4)c(C)c3)cc2C)cc1 (repeat unit) |
| 126.50 °C | *CC(*)c1cccc(N(c2ccc(C)cc2)c2ccc(C)cc2)c1 (repeat unit) |
| 162 °C | *c1ccc(Oc2ccc(C(C)(C)c3ccc(Oc4ccc(S(*)(=O)=O)cc4)cc3)cc2)s1 (repeat unit) |
| 174.00 °C | *Oc1cccc(Oc2ccc(/N=C/c3ccc(N(c4ccccc4)c4ccc(/C=N/c5ccc(*)cc5)cc4)cc3)cc2)c1 (repeat unit) |
| 154.00 °C | *c1cc(Br)c(-c2c(Br)cc(N3C(=O)c4ccc(-c5ccc6c(c5)C(=O)N(*)C6=O)cc4C3=O)cc2C(=O)OCCCCCC)c(C(=O)OCCCCCC)c1 (repeat unit) |
| 373.00 °C | *c1ccc(-c2ccc(-n3c(=O)c4cc5c(=O)n(*)c(=O)c5c(C(F)(F)F)c4c3=O)cc2C(F)(F)F)c(C(F)(F)F)c1 (repeat unit) |
| 338.00 °C | *c1cccc(NC(=O)c2cccc(C(=O)Nc3cccc(-n4c(=O)c5cc6c(=O)n(*)c(=O)c6cc5c4=O)c3)c2)c1 (repeat unit) |
| 174.00 °C | *Oc1ccc(Oc2ccc(C(=O)c3ccc(C(=O)c4ccc(*)cc4)cc3)cc2)cc1-c1ccc(S(=O)(=O)O)cc1 (repeat unit) |
| 130.00 °C | *c1cc(C)c(/N=C/c2ccc(OCc3ccc(COc4ccc(/C=N/c5cc(C)c(N6C(=O)c7ccc8c9ccc%10c%11c(ccc(c%12ccc(c7c8%12)C6=O)c%119)C(=O)N(*)C%10=O)cc5C)cc4)cc3)cc2)cc1C (repeat unit) |
| 34.00 °C | *c1ccc(-c2ccc3c(c2)C(CCCCCCCC)(CCCCCCCC)c2cc(*)ccc2-3)c(F)c1 (repeat unit) |
| 176.00 °C | *c1cccc(Oc2cccc(Oc3cccc(Oc4cccc(Oc5cccc(N6C(=O)c7ccc(Oc8ccc9c(c8)C(=O)N(*)C9=O)cc7C6=O)c5)c4C#N)c3)c2C#N)c1 (repeat unit) |
